Experiments:
IL-4 mRNA [1] = experiment: PHA-induced IL-4 mRNA expression in heparinized whole blood ex vivo; assay type: cell-based, human; details: for ΔΔCt (mean ± standard deviation, n = 3), IL-4 mRNA: supplement 30 min, then 100 μg/mL PHA 2 h, concentrations per footnote
Description: (§1) In this embodiment, phytohemagglutinin-induced gene expression of interleukin-2 (IL-2), interleukin-4 (IL-4), and tumor necrosis factor-α (TNF-α) were quantitated in the following manner. Fifty μL of heparinized whole blood was incubated with various dietary supplements for a period of 30 minutes. The following supplements were employed: vitamins A, C, and D, epigallocatechin gallate (from green tea), genistein (from soy), and curcumin (from the spice turmeric). Vitamin A is known to stimulate the immune system. […] Vitamin D appears to have protective effects against certain cancers. Epigallocatechin gallate is a powerful antioxidant, appears to reduce the multidrug resistance found in cancer cells, and preferentially induces apoptosis in neoplastic cells. Genistein has been found in some studies to have anticarcinogenic activity; possible mechanisms of action include upregulation of apoptosis, inhibition of angiogenesis, inhibition of DNA topoisomerase II and inhibition of protein tyrosine kinases. Curcumin has proapoptotic effects in neoplastic cells and interferes with the activity of the transcription factor NF-κB, which is often highly overexpressed in such cells.
(§2) After incubation with the dietary supplement, 100 μg/mL phytohemagglutinin (PHA) was added and incubation was continued for an additional 2 hours at 37° C. The concentration of each dietary supplement (see Table I, note) was slightly higher than reported blood levels. Then mRNA was purified, cDNA was synthesized, and the levels of IL-2, IL-4, and TNF-α were quantitated by TaqMan real time polymerase chain reaction (PCR) (see Holland, et al., “Detection of specific polymerase chain reaction product by utilizing the 5′ to 3′ exonuclease activity of Thermus aquaticus DNA polymerase,” Proc Natl Acad Sci USA 1991; 88: 7276-80), as described below.
(§3) The mRNA and cDNA were prepared from the whole blood that was exposed to the dietary components, as well as the whole blood which remained unexposed. In brief, home-made 96-well filterplates were placed over collection plates, and 150 μl 5 mM Tris, pH 7.4, was applied. Following centrifugation at 120×g for 1 min at 4° C., 50 μl of blood samples were applied to each well and immediately centrifuged at 120×g for 2 min at 4° C., followed by washing of each well with 300 μl PBS once with centrifugation at 2000×g for 5 min at 4° C. Then, 60 μl stock lysis buffer, containing for example 0.5% N-Lauroylsarcosine, 4×SSC, 10 mM Tris HCl, pH 7.4, 1 mM EDTA, 0.1% IGEPAL CA-630, and 1.791 M guanidine thiocyanate, supplemented with 1% 2-mercaptoethanol (Bio Rad, Hercules, Calif., USA), 0.5 mg/ml proteinase K (Pierce, Rockford, Ill., USA), 0.1 mg/ml salmon sperm DNA (5 Prime Eppendorf/Brinkmann, Westbury, N.Y., USA), 0.1 mg/ml E. coli tRNA (Sigma), a cocktail of 10 mM each of the specific reverse primers shown in Table 2, and standard RNA34 oligonucleotides, were applied to the filterplates, followed by incubation at 37° C. for 10 min. The filterplates were then placed over oligo(dT)-immobilized microplates (GenePlate, RNAture), and centrifuged at 2000×g for 5 min at 4° C. Following overnight storage at 4° C., the microplates were washed with 100 μl plain lysis buffer 3 times, followed by 150 μl of wash buffer (0.5 M NaCl, 10 mM Tris, pH 7.4, 1 mM EDTA) 3 times at 4° C. The cDNA was directly synthesized in each well by adding 30 μl of buffer containing 1×RT-buffer, 1.25 mM each of dNTP, 4 units rRNasin, and 80 units of MMLV reverse transcriptase (Promega) (without primers), and incubation at 37° C. for 2 hours. The specific primer-primed cDNA existed in solution, and oligo(dT)-primed cDNA stayed immobilized in the microplate. […]

IL-2 mRNA [2] = experiment: PHA-induced IL-2 mRNA expression in heparinized whole blood ex vivo; assay type: cell-based, human; details: for ΔΔCt (mean ± standard deviation, n = 3), IL-2 mRNA: supplement 30 min, concentrations per footnote
Description: as §1, §2, §3

[3] = at 8 hours after a single soy meal; cited from earlier work
TNF-α mRNA [4] = experiment: PHA-induced TNF-α mRNA expression in heparinized whole blood ex vivo; assay type: cell-based, human; details: for ΔΔCt (mean ± standard deviation, n = 3), TNFα mRNA: supplement 30 min, then 100 μg/mL PHA 2 h, concentrations per footnote
Description: as §1, §2, §3

[5] = system: CD32A mRNA (IgG Fc receptor); experiment: CD32A mRNA level in leukocytes after exposure of whole blood to dietary components (no stimulating agent); assay type: cell-based, human; details: one individual; 3 hours at 37° C.; PBS control
Description: In brief, home-made 96-well filterplates were placed over collection plates, and 150 μl 5 mM Tris, pH 7.4, was applied. Following centrifugation at 120×g for 1 min at 4° C., 50 μl of blood samples were applied to each well and immediately centrifuged at 120×g for 2 min at 4° C., followed by washing of each well with 300 μl PBS once with centrifugation at 2000×g for 5 min at 4° C. […] The filterplates were then placed over oligo(dT)-immobilized microplates (GenePlate, RNAture), and centrifuged at 2000×g for 5 min at 4° C. Following overnight storage at 4° C., the microplates were washed with 100 μl plain lysis buffer 3 times, followed by 150 μl of wash buffer (0.5 M NaCl, 10 mM Tris, pH 7.4, 1 mM EDTA) 3 times at 4° C. […] The specific primer-primed cDNA existed in solution, and oligo(dT)-primed cDNA stayed immobilized in the microplate. […] Each gene was amplified in separate wells. The Ct was determined by analytical software (SDS, ABI).

TNFSF3 mRNA = TNFSF3 mRNA in whole blood after dietary component and heat-aggregated IgG stimulation; assay type: cell-based, human; details: case 1, FIG. 5; pre-incubation 30 minutes, HAG 2 hours; quercetin 100 nmol/L
Description: The mRNA and cDNA were prepared from the whole blood that was exposed to the dietary components, as well as the whole blood which remained unexposed. In brief, home-made 96-well filterplates were placed over collection plates, and 150 μl 5 mM Tris, pH 7.4, was applied. Following centrifugation at 120×g for 1 min at 4° C., 50 μl of blood samples were applied to each well and immediately centrifuged at 120×g for 2 min at 4° C., followed by washing of each well with 300 μl PBS once with centrifugation at 2000×g for 5 min at 4° C. […] The Ct was determined by analytical software (SDS, ABI).
In this embodiment, heparinized whole blood of two individuals was pre-incubated with various dietary supplements at 37° C. for 30 minutes (at the same blood concentrations as in Embodiment 2), then stimulated with 1.2 μL of heat-aggregated IgG. […] The level of TNFSF3 and TNFSF15 mRNA was then assessed using the method described in Embodiment 1, with the exception that SYBR Green PCR was used to quantitate the mRNA. […]

IL-2 mRNA [6] = experiment: PHA-induced IL-2 mRNA expression in heparinized whole blood ex vivo; assay type: cell-based, human
TNF-α mRNA [7] = experiment: PHA-induced TNF-α mRNA expression in heparinized whole blood ex vivo; assay type: cell-based, human
IL-4 mRNA [8] = experiment: PHA-induced IL-4 mRNA expression in heparinized whole blood ex vivo; assay type: cell-based, human
[9] = summary over 7 subjects of Table I
[10] = PHA alone, 2 hours at 37° C., FIG. 1A

Compound: O=c1c(-c2ccc(O)cc2)coc2cc(O)cc(O)c12 [Gen., genistein]
- ΔΔCt (mean ± standard deviation, n = 3), IL-4 mRNA (IL-4 mRNA [1]; Subject 1): −1.83 ± 0.20
- ΔΔCt (mean ± standard deviation, n = 3), IL-4 mRNA (IL-4 mRNA [1]; Subject 2): −1.56 ± 0.46
- ΔΔCt (mean ± standard deviation, n = 3), IL-4 mRNA (IL-4 mRNA [1]; Subject 3): −0.82 ± 0.34
- ΔΔCt (mean ± standard deviation, n = 3), IL-4 mRNA (IL-4 mRNA [1]; Subject 4): −1.04 ± 0.16
- ΔΔCt (mean ± standard deviation, n = 3), IL-4 mRNA (IL-4 mRNA [1]; Subject 5): −0.45 ± 0.34
- ΔΔCt (mean ± standard deviation, n = 3), IL-4 mRNA (IL-4 mRNA [1]; Subject 6): −0.34 ± 0.02
- ΔΔCt (mean ± standard deviation, n = 3), IL-4 mRNA (IL-4 mRNA [1]; Subject 7): 0.28 ± 0.25
- effect on PHA-induced IL-4 expression, in words (IL-4 mRNA [1]; [9]): mainly inactive
- ΔΔCt (mean ± standard deviation, n = 3), IL-2 mRNA (IL-2 mRNA [2]; Subject 1, then 100 μg/mL PHA 2 h 37° C., negative = increased expression): −0.41 ± 0.53
- ΔΔCt (mean ± standard deviation, n = 3), IL-2 mRNA (IL-2 mRNA [2]; Subject 2, then 100 μg/mL PHA 2 h): 0.90 ± 0.44
- ΔΔCt (mean ± standard deviation, n = 3), IL-2 mRNA (IL-2 mRNA [2]; Subject 3, then 100 μg/mL PHA 2 h): 0.11 ± 0.23
- ΔΔCt (mean ± standard deviation, n = 3), IL-2 mRNA (IL-2 mRNA [2]; Subject 4, then 100 μg/mL PHA 2 h): 0.08 ± 0.04
- ΔΔCt (mean ± standard deviation, n = 3), IL-2 mRNA (IL-2 mRNA [2]; Subject 5, then 100 μg/mL PHA 2 h): −0.02 ± 1.03
- ΔΔCt (mean ± standard deviation, n = 3), IL-2 mRNA (IL-2 mRNA [2]; Subject 6, then 100 μg/mL PHA 2 h): 0.00 ± 0.27
- ΔΔCt (mean ± standard deviation, n = 3), IL-2 mRNA (IL-2 mRNA [2]; Subject 7, then 100 μg/mL PHA 2 h): −0.28 ± 0.20
- effect on PHA-induced IL-2 expression, in words (IL-2 mRNA [2]; [9]): mainly inactive
- plasma concentration [3]: 4000 µM
- ΔΔCt (mean ± standard deviation, n = 3), TNFα mRNA (TNF-α mRNA [4]; Subject 1): −1.14 ± 0.32
- ΔΔCt (mean ± standard deviation, n = 3), TNFα mRNA (TNF-α mRNA [4]; Subject 2): −1.01 ± 0.04
- ΔΔCt (mean ± standard deviation, n = 3), TNFα mRNA (TNF-α mRNA [4]; Subject 3): 0.33 ± 0.62
- ΔΔCt (mean ± standard deviation, n = 3), TNFα mRNA (TNF-α mRNA [4]; Subject 4): −0.16 ± 0.12
- ΔΔCt (mean ± standard deviation, n = 3), TNFα mRNA (TNF-α mRNA [4]; Subject 5): −0.32 ± 0.54
- ΔΔCt (mean ± standard deviation, n = 3), TNFα mRNA (TNF-α mRNA [4]; Subject 6): −0.02 ± 0.20
- ΔΔCt (mean ± standard deviation, n = 3), TNFα mRNA (TNF-α mRNA [4]; Subject 7): −0.17 ± 0.18
- effect on PHA-induced TNF-α expression, in words (TNF-α mRNA [4]; [9]): mainly inactive
- conclusion from CD32A mRNA levels (FIG. 2), in words [5]: would be suitable for use in this individual in a diet optimized for anti-cancer activity

Compound: O=c1c(O)c(-c2ccc(O)c(O)c2)oc2cc(O)cc(O)c12 [quercetin]
- HAG-induced TNFSF3 expression, in words (TNFSF3 mRNA): HAG induced TNFSF3 expression in blood exposed to quercetin

Compound: phytohemagglutinin [PHA]
- time for IL-2 mRNA induction to reach a plateau (IL-2 mRNA [6]; 100 μg/mL PHA, FIG. 1B): 30 to 60 min
- EC50 of induction of IL-2 mRNA expression (IL-2 mRNA [6]; [10]): 10 to 20 µg/mL
- time for TNF-α mRNA induction to reach a plateau (TNF-α mRNA [7]; 100 μg/mL PHA, FIG. 1B): 30 to 60 min
- EC50 of induction of TNF-α mRNA expression (TNF-α mRNA [7]; [10]): 10 to 20 µg/mL
- time for IL-4 mRNA induction to reach a plateau (IL-4 mRNA [8]; 100 μg/mL PHA, FIG. 1B): 30 to 60 min
- EC50 of induction of IL-4 mRNA expression (IL-4 mRNA [8]; [10]): 10 to 20 µg/mL
